From PMC3347530, “Atomic Resolution Crystal Structure of NAD^+-Dependent Formate Dehydrogenase from Bacterium Moraxella sp. C-1” (Acta Naturae, 2009) come the findings set out here.

Each structure is given as a SMILES string.

The target of this experiment is T1, MorFDH (NAD+-dependent formate dehydrogenase from Moraxella sp. C-1) (Moraxella sp., UniProt O08375).
T1 construct: gene fdh; homodimer; 399 residues located, last two C-terminal residues not seen
T1 sequence (O08375 2-402): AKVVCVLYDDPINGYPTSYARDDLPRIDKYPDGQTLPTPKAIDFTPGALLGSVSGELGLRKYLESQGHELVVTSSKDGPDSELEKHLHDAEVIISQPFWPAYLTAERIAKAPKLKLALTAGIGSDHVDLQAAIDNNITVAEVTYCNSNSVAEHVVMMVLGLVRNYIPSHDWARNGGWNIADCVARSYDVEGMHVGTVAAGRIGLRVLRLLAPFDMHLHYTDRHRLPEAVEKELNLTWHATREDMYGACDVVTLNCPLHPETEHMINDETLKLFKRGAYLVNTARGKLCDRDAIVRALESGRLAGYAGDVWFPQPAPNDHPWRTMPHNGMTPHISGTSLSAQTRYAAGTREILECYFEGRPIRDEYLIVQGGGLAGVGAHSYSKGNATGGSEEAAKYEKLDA
As to the kind of experiment: X-ray crystal structure, […] A. The class given is binding. The following applies: active site, co-crystallised with 5 mM NAD+ and 5 mM sodium azide, protein in pH 7.0 phosphate, reservoir pH 6.5, 20 C.

As to `NC(=O)c1ccc[n+]([C@@H]2O[C@H](COP(=O)(O)OP(=O)(O)OC[C@H]3O[C@@H](n4cnc5c(N)ncnc54)[C@H](O)[C@@H]3O)[C@@H](O)[C@H]2O)c1` [NAD+], the “X-ray crystal structure, 1.1 A” value (ternary complex with azide) was “The NAD ^+ molecule and one azide ion are bound in the active site of the enzyme”. Turning to `[N-]=[N+]=[N-]` [azide ion], under “ternary complex with NAD+, inhibitor, transition-state mimic”, the “X-ray crystal structure, 1.1 A” value was “The NAD ^+ molecule and one azide ion are bound in the active site of the enzyme”.
